In US9718790B2, “Triazine derivative and pharmaceutical composition having an analgesic activity comprising the same” (SHIONOGI & CO., LTD., priority 2010, dated 2017):
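Note: stimulus was 50 nM ATP with fluorescence followed for 3 min, and the response per well was peak post-ATP fluorescence divided by the reading at measurement start.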

What follows are compounds tested against human P2X3 receptor (Homo sapiens (Human), UniProt P56373) (assay: Evaluation of human P2X3 receptor inhibitory activity (Fluo-3 calcium fluorescence, FDSS 3000, ATP stimulation)). Details: C6BU-1 cells stably expressing human P2X3 receptor.
human P2X3 receptor, sequence (P56373 whole entry): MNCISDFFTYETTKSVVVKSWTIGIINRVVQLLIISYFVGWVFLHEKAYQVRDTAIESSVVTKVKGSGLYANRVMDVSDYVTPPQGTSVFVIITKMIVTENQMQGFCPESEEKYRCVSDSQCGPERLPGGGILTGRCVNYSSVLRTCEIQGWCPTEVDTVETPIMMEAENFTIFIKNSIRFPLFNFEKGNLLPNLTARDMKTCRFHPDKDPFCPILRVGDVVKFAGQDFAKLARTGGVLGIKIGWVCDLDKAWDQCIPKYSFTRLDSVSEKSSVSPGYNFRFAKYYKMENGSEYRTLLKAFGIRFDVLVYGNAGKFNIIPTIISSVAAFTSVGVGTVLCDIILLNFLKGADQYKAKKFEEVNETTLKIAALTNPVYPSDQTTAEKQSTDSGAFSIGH
Assay type: cell-based
`CCn1c(=O)[nH]/c(=N\c2ccc(Oc3cc(F)cc(C(=O)O)c3)cc2)n(Cc2ccc(Cl)cc2)c1=O` [Compound I-2223] was tested, and the IC50 was 6 nM. `CCn1c(=O)[nH]/c(=N\c2ccc(Oc3cnc(C(=O)OC)cn3)cc2)n(Cc2ccc(Cl)cc2)c1=O` [Compound I-2212] gave an IC50 of 2 nM. `CCn1c(=O)[nH]/c(=N\c2ccc(Oc3cncc(C(N)=O)c3)cc2)n(CC2CCC3(CC2)CC3)c1=O` [Compound I-2178] was tested, and the IC50 was 5 nM. In the case of `C[C@@H](Cn1c(=O)[nH]/c(=N\c2cnc(OC3CCC3)c(Cl)c2)n(Cc2ccc(Cl)cc2)c1=O)C(=O)O` [Compound I-1411], the IC50 is reported as 58 nM. Compound `Cc1ccc(Cn2c(=O)n(C[C@H](C)C(=O)O)c(=O)[nH]/c2=N\c2ccc(CC(C)C)c(F)c2)cc1` [Compound I-1256] has an IC50 of 18 nM. In the case of `COC(=O)[C@H](C)Cn1c(=O)[nH]/c(=N\c2ccc(OC(C)C)c(C)c2)n(Cc2ccc(Cl)cc2)c1=O` [Compound I-0589], the IC50 is reported as 6 nM. `CCOC(=O)c1nc(Cn2c(=O)[nH]/c(=N\c3ccc(OC(C)C)c(C)c3)n(Cc3ccc(Cl)cc3)c2=O)cs1` [Compound I-0785] was tested, and the IC50 was 11 nM. For `CCOC(=O)c1cnc(Oc2ccc(/N=c3\[nH]c(=O)n(CC)c(=O)n3Cc3ccc(Cl)cc3)cc2)s1` [Compound I-2148], the IC50 was 2 nM. `COC(=O)CCCn1c(=O)[nH]/c(=N\c2ccc(Oc3ccc(C)nc3)cc2)n(Cc2ccc(Cl)cc2)c1=O` [Compound I-1368] was tested, and the IC50 was 5 nM. In the case of `Cc1ccc(Cn2c(=O)n(C[C@H](C)C(=O)O)c(=O)[nH]/c2=N\c2ccc(OC(C)C)c(C)c2)cc1` [Compound I-0680], the IC50 is reported as 26 nM. Work on `O=C(O)c1cncc(Oc2ccc(/N=c3\[nH]c(=O)n(CC(F)F)c(=O)n3Cc3ccc(Cl)cc3)cc2)c1` [Compound I-2215] yielded an IC50 of 6 nM. For `CCn1c(=O)[nH]/c(=N\c2ccc(Oc3cccc(C(=O)O)n3)cc2)n(Cc2ccc(C)cc2)c1=O` [Compound I-2181], the IC50 was 4 nM. Work on `CCCc1ccc(/N=c2\[nH]c(=O)n(C[C@H](C)C(=O)O)c(=O)n2Cc2ccc(C)cc2)cc1Cl` [Compound I-1267] yielded an IC50 of 9 nM. `CCOC(=O)CCCn1c(=O)[nH]/c(=N\c2ccc(Oc3ccncc3)cc2)n(Cc2ccc(C)cc2)c1=O` [Compound I-1238] was tested, and the IC50 was 2 nM. `CCCCc1ccc(/N=c2\[nH]c(=O)n(C[C@H](C)C(=O)O)c(=O)n2Cc2ccc(Cl)cc2)cc1` [Compound I-0624] gave an IC50 of 42 nM. Work on `COC(=O)[C@H](C)[C@H](C)n1c(=O)[nH]/c(=N\c2ccc(Oc3cccnc3)cc2)n(Cc2ccc(Cl)cc2)c1=O` [Compound I-1377] yielded an IC50 of 7 nM. `Cc1ccc(Cn2c(=O)n([C@H](C)[C@H](C)C(=O)O)c(=O)[nH]/c2=N\c2ccc(OC(C)C)c(C)c2)cc1` [Compound I-1339] was tested, and the IC50 was 30 nM. Compound `CCn1c(=O)[nH]/c(=N\c2ccc(Oc3ccnc(NC(=O)NC4CC4)c3)cc2)n(Cc2ccc(Cl)cc2)c1=O` [Compound I-2213] has an IC50 of 2 nM. Compound `COC(=O)[C@@H](C)[C@@H](C)n1c(=O)[nH]/c(=N\c2ccc(OCC3CC3)cc2)n(Cc2ccc(Cl)cc2)c1=O` [Compound I-1316] has an IC50 of 54 nM. `CC(C)Oc1ccc(/N=c2\[nH]c(=O)n([C@H](C)[C@H](C)C(=O)O)c(=O)n2Cc2ccc(Cl)cc2)cc1F` [Compound I-1343] was tested, and the IC50 was 35 nM. In the case of `Cc1cc(Oc2ccc(/N=c3\[nH]c(=O)n(CC(N)=O)c(=O)n3Cc3ccc(Cl)cc3)cc2)ccn1` [Compound I-1926], the IC50 is reported as 10 nM. `CCn1c(=O)[nH]/c(=N\c2ccc(OCc3noc(C)n3)cc2)n(Cc2ccc(Cl)cc2)c1=O` [Compound I-2200] was tested, and the IC50 was 545 nM. `C=C(Cn1c(=O)[nH]/c(=N\c2ccc(OC(C)C)c(C)c2)n(Cc2ccc(Cl)cc2)c1=O)C(=O)OCC` [Compound I-0779] was tested, and the IC50 was 16 nM. Work on `Cc1cc(/N=c2\[nH]c(=O)n(C[C@H](C)C(=O)NCC(F)(F)F)c(=O)n2Cc2ccc(Cl)cc2)ccc1OC(C)C` [Compound I-0726] yielded an IC50 of 16 nM. Work on `COC(=O)[C@@H](C)Cn1c(=O)[nH]/c(=N\c2ccc(Oc3ccnc(C)c3)cc2)n(Cc2ccc(C)cc2)c1=O` [Compound I-1274] yielded an IC50 of 6 nM. `COC(=O)[C@@H](C)Cn1c(=O)[nH]/c(=N\c2cnc(OC3CCCC3)c(Cl)c2)n(Cc2ccc(C)cc2)c1=O` [Compound I-1475] was tested, and the IC50 was 39 nM. In the case of `Cc1ccc(Cn2c(=O)n(CCC(=O)O)c(=O)[nH]/c2=N\c2ccc(OC(C)C)c(CO)c2)cc1` [Compound I-1429], the IC50 is reported as 232 nM. Compound `CCCc1ccc(/N=c2\[nH]c(=O)n(C[C@H](C)C(=O)OC)c(=O)n2Cc2ccc(Cl)cc2)cc1OC` [Compound I-1306] has an IC50 of 80 nM.

Same assay, conditions: C6BU-1 cells stably expressing human P2X3 receptor, Fluo-3 fluorescence, FDSS 3000
Compound `CCCOc1ccc(/N=c2\[nH]c(=O)n(CC3(C(=O)OCC)CC3)c(=O)n2Cc2ccc(C)cc2)cc1` [Compound I-0912] has an IC50 of 10 nM. Compound `C[C@@H](C(=O)O)[C@H](C)n1c(=O)[nH]/c(=N\c2ccc3c(c2)CCO3)n(Cc2ccc(Cl)cc2)c1=O` [Compound I-1833] has an IC50 of 580 nM. `COC(=O)[C@@H](C)Cn1c(=O)[nH]/c(=N\c2cccc(C3CCCC3)c2)n(Cc2ccc(C)cc2)c1=O` [Compound I-1089] was tested, and the IC50 was 487 nM. Compound `COC(=O)[C@@H](C)Cn1c(=O)[nH]/c(=N\c2ccc(OCC3CC3)c(Cl)c2)n(Cc2ccc(C)cc2)c1=O` [Compound I-0958] has an IC50 of 30 nM. `CNC(=O)Cn1c(=O)[nH]/c(=N\c2ccc(Oc3ccc(OC)nc3)cc2)n(Cc2ccc(Cl)cc2)c1=O` [Compound I-1857] gave an IC50 of 7 nM. With `CC1(C)OCC(Cn2c(=O)[nH]/c(=N\c3ccc(OCC4CC4)cc3)n(Cc3ccc(Cl)cc3)c2=O)CO1` [Compound I-1841] the IC50 was 6 nM. For `Cc1nc2ccc(/N=c3\[nH]c(=O)n(CC(C)(CO)CO)c(=O)n3Cc3ccc(Cl)cc3)cc2s1` [Compound I-1643], the IC50 was 5 nM. Compound `C[C@@H](Cn1c(=O)[nH]/c(=N\c2ccc(N3CCCCC3)cc2)n(Cc2ccc(Cl)cc2)c1=O)C(=O)O` [Compound I-0962] has an IC50 of 31 nM. In the case of `Cc1nc2ccc(/N=c3\[nH]c(=O)n(CC4(C)COC(C)(C)OC4)c(=O)n3Cc3ccc(Cl)cc3)cc2s1` [Compound I-1635], the IC50 is reported as 5 nM. `C[C@H](Cn1c(=O)[nH]/c(=N\c2ccc(OCC3CC3)cc2)n(Cc2ccc(Cl)cc2)c1=O)C(=O)O` [Compound I-1037] gave an IC50 of 93 nM. Work on `Cc1ccc(Cn2c(=O)n(C[C@H](C)C(=O)O)c(=O)[nH]/c2=N\c2ccc(C3=CCCCC3)cc2)cc1` [Compound I-1111] yielded an IC50 of 161 nM. Compound `COC(=O)[C@@H](C)Cn1c(=O)[nH]/c(=N\c2ccc(C3CCCC3)cc2)n(Cc2ccc(C)cc2)c1=O` [Compound I-1090] has an IC50 of 135 nM. For `C[C@@H](Oc1ccc(/N=c2\[nH]c(=O)n(CC(CO)CO)c(=O)n2Cc2ccc(Cl)cc2)cc1)C(F)(F)F` [Compound I-1882], the IC50 was 16 nM. With `CCC[C@H](C)Oc1ccc(/N=c2\[nH]c(=O)n(C[C@H](C)C(=O)OC)c(=O)n2Cc2ccc(C)cc2)cc1` [Compound I-1046] the IC50 was 28 nM. In the case of `COCO[C@@H](Cn1c(=O)[nH]/c(=N\c2ccc(OC(C)C)c(C)c2)n(Cc2ccc(Cl)cc2)c1=O)C(=O)OC` [Compound I-0993, (S)-1-(4-chlorobenzyl)-6-(3-mehyl-4-isopropoxyphenylimino)-3-[2-methoxycarbonyl-2-(methoxymethyloxy)ethyl]-1,3,5-triazinane-2,4-dion], the IC50 is reported as 20 nM. For `COC(=O)[C@@H](C)Cn1c(=O)[nH]/c(=N\c2ccc(C3=CCCCC3)cc2)n(Cc2ccc(C)cc2)c1=O` [Compound I-1078], the IC50 was 218 nM. With `Cc1ccc(Cn2c(=O)n(C[C@H](C)C(=O)O)c(=O)[nH]/c2=N\c2ccc(OC(F)F)c(Cl)c2)cc1` [Compound I-1032] the IC50 was 33 nM. `COC(=O)[C@@H](C)Cn1c(=O)[nH]/c(=N\c2ccc(CC(C)C)c(C)c2)n(Cc2ccc(Cl)cc2)c1=O` [Compound I-0947] was tested, and the IC50 was 24 nM.

Same assay, conditions: human P2X3 receptor, Test Example 1
Work on `Cc1ccc(Cn2c(=O)n(C[C@H](C)C(=O)O)c(=O)[nH]/c2=N\c2ccc(CC3CC3)c(Cl)c2)cc1` [Compound I-1513] yielded an IC50 of 10 nM. Work on `CC(CO)(CO)Cn1c(=O)[nH]/c(=N\c2ccc(Oc3ccon3)cc2)n(Cc2ccc(F)cc2)c1=O` [Compound I-2399] yielded an IC50 of 20 nM. `CCn1c(=O)[nH]/c(=N\c2ccc(Oc3cncc(C(=O)OC)n3)cc2)n(Cc2ccc(C)cc2)c1=O` [Compound I-2467] gave an IC50 of 7 nM. For `CCn1c(=O)[nH]/c(=N\c2ccc(Oc3nc(C)c(C(=O)O)s3)cc2)n(C[C@H]2CC[C@H](C)CC2)c1=O` [Compound I-2346], the IC50 was 4 nM. Work on `O=c1[nH]/c(=N\c2ccc(Oc3ncccn3)cc2)n(Cc2ccc(Cl)cc2)c(=O)n1CC(CO)CO` [Compound I-2544] yielded an IC50 of 11 nM. With `Cc1ccc(Cn2c(=O)n(CCC(=O)O)c(=O)[nH]/c2=N\c2ccc3nc(C)sc3c2)cc1` [Compound I-1521] the IC50 was 22 nM. Compound `COC(=O)CCn1c(=O)[nH]/c(=N\c2ccc(Oc3ncccn3)cc2)n(Cc2ccc(C)cc2)c1=O` [Compound I-2551] has an IC50 of 4 nM. For `Cc1ccc(Cn2c(=O)n(C)c(=O)[nH]/c2=N\c2ccc(Oc3cncc(C(N)=O)n3)cc2)cc1` [Compound I-2473], the IC50 was 8 nM. In the case of `C=Cc1ccc(Cn2c(=O)n(C[C@H](C)C(=O)OC)c(=O)[nH]/c2=N\c2ccc(OC(C)C)c(C)c2)cc1` [Compound I-0892, (S)-1-(4-vinylbenzyl)-6-(3-mehyl-4-isopropoxyphenylimino)-3-(2-methoxycarbonylpropyl)-1,3,5-triazinane-2,4-dion], the IC50 is reported as 18 nM. Work on `CCn1c(=O)[nH]/c(=N\c2ccc(Oc3ccc(C(=O)O)nn3)cc2)n(Cc2ccc(Cl)cc2)c1=O` [Compound I-2273] yielded an IC50 of 12 nM. In the case of `COC(=O)c1cc(Oc2ccc(/N=c3\[nH]c(=O)n(C)c(=O)n3Cc3ccc(Cl)cc3)cc2)ccn1` [Compound I-2377], the IC50 is reported as 15 nM. Work on `CCn1c(=O)[nH]/c(=N\c2ccc(Oc3ccc(NC(=O)NC)nc3)cc2)n(Cc2ccc(Cl)cc2)c1=O` [Compound I-2426] yielded an IC50 of 11 nM. Compound `CCn1c(=O)[nH]/c(=N\c2ccc(Oc3ccnc(NC(=O)OC(C)(C)C)c3)cc2)n(Cc2ccc(Cl)cc2)c1=O` [Compound I-2304] has an IC50 of 29 nM. `O=c1[nH]/c(=N\c2ccc(Oc3cnsn3)cc2)n(Cc2ccc(Cl)cc2)c(=O)n1CCO` [Compound I-2477] gave an IC50 of 15 nM. In the case of `CCn1c(=O)[nH]/c(=N\c2ccc(Oc3ncc(C(=O)O)cn3)cc2)n(Cc2ccc(Cl)cc2)c1=O` [Compound I-2323], the IC50 is reported as 16 nM. `CC[C@@H](Cn1c(=O)[nH]/c(=N\c2ccc(OC(C)C)c(C)c2)n(Cc2ccc(C)cc2)c1=O)C(=O)O` [Compound I-0886] was tested, and the IC50 was 76 nM.
